Experiments:
[1] = In vitro plasma protein binding; assay type: in vitro ADME, mouse; settings: for mean fraction bound (%): mouse plasma, test concentration 5 nM
S1P2 receptor = S1P2 receptor (Homo sapiens (Human), UniProt O95136); assay: Antagonist assay (FLIPR TETRA, inhibition of reference agonist EC80) on S1P2; assay type: cell-based; settings: tested as the citrate salt
Experimental: (§1) Antagonist percentage inhibition determinations were obtained by assaying sample compounds and referencing the control (EC80) wells for each profiled (GPCR) which evaluated binding to S1P2 and S1P5 receptors. The samples were run using a single addition assay protocol. The protocol design is as follows.
(§2) Unless specified otherwise, the sample compounds were diluted in 100% anhydrous DMSO including all dilutions. The compounds were tested as the citrate salt (1 equivalent per molecule). If the sample compound is provided in a different solvent all master stock dilutions are performed in the specified solvent. All control wells contained identical solvent final concentrations as the sample compound wells.
(§3) The sample compounds were transferred from a master stock solution into a daughter plate that was used in the assay. Each sample compound was diluted into an assay buffer (1×HBSS with 20 mM HEPES, 2.5 mM Probenecid, and 0.4% Free Fatty Acid BSA) at an appropriate concentration to obtain final specified concentrations.
(§4) Using the EC80 values that were determined real-time, stimulated all pre-incubated sample compounds and reference antagonists (if applicable) were compared with the EC80 values of reference agonist. These were read for 180 seconds using the FLIPR^TETRA (This assay added reference agonist to respective wells-then fluorescences measurements were collected to calculate IC50 values). All plates were subjected to appropriate baseline corrections. Once baseline corrections were processed, maximum fluorescence values were exported and data manipulated to calculate percentage activation, percentage inhibition and Z′.

S1P5 receptor = S1P5 receptor (Homo sapiens (Human), UniProt Q9H228); assay: Antagonist assay (FLIPR TETRA, inhibition of reference agonist EC80) on S1P5; assay type: cell-based; settings: tested as the citrate salt
Chain of S1P5 receptor (Q9H228 whole entry): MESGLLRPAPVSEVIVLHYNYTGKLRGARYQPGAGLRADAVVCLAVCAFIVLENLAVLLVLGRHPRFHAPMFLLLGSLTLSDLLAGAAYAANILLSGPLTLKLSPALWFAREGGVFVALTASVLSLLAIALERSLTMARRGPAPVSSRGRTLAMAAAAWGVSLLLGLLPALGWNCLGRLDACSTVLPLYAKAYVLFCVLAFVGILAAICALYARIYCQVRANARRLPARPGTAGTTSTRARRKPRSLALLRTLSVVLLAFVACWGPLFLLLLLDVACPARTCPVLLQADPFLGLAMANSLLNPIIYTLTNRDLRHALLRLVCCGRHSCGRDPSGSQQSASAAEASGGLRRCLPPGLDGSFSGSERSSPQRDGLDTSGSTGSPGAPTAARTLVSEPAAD
Experimental: as §1, §2, §3, §4

[2] = Microsomal intrinsic clearance; settings: for microsomal CLint at 1 μM / half-life at 1 μM: mouse, liver microsomes, mouse microsomes, test conc. 1 μM

Chain of S1P2 receptor (O95136 whole entry): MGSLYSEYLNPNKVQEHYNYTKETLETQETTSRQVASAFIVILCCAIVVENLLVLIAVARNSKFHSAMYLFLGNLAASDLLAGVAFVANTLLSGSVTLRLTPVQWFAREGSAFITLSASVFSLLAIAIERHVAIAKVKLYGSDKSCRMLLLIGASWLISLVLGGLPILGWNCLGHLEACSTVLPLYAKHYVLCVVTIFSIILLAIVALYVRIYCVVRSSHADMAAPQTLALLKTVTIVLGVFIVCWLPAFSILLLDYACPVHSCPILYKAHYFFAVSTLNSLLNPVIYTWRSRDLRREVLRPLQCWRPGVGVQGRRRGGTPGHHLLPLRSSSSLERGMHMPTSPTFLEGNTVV

For `CC(C)NCC(O)COc1cccc2ccccc12` (centres unmarked) [Propanolol, reference compound], the “mean fraction bound (%)” value [1] was 87.4%.
`CCNc1cc(NC(=O)NN(CCO)c2cc(C(C)C)c3c(C)nn(C)c3n2)cc(Cl)n1` [Compound 38] gave an IC50 (S1P2 receptor) of 4 nM and an IC50 (S1P5 receptor) of 4.6 nM.
With `Cc1sc(NC(=O)NN(CCO)c2cc(C(C)C)c3c(C)nn(C)c3n2)cc1Cl` [Compound 43] the IC50 (S1P2 receptor) was 360 nM and the IC50 (S1P5 receptor) was > 10000 nM.
In the case of `Cc1nn(C)c2nc(N(CCO)NC(=O)Nc3cc(Cl)no3)cc(C(C)C)c12` [Compound 45], the IC50 (S1P2 receptor) is reported as > 10000 nM and the IC50 (S1P5 receptor) is reported as > 10000 nM.
For `CC(C)c1cc(NNC(=O)Nc2cc(Cl)nc(Cl)c2)nc2c(CCCO)nn(C)c12` [Compound 33], the IC50 (S1P2 receptor) was 5 nM and the IC50 (S1P5 receptor) was < 10 nM.
For `Cc1nn(C)c2nc(N(CC(=O)O)NC(=O)Nc3cc(Cl)nc(Cl)c3)cc(C(C)C)c12` [Compound 2], the “stability in liver microsomes (in words)” value ([2]; compared with JTE013) was “much more stable in liver microsomes”, the microsomal CLint at 1 μM ([2]; NADPH-dependent Clint (microsomal intrinsic clearance)) was 20 µL/min/mg and the half-life at 1 μM ([2]; NADPH-dependent T1/2 (half-life)) was 1.88 h. For the same compound, the microsomal CLint at 1 μM ([2]; NADPH-free Clint (microsomal intrinsic clearance)) was 9 µL/min/mg, the half-life at 1 μM ([2]; NADPH-free T1/2 (half-life)) was > 3 h and the IC50 (S1P2 receptor) was 11 nM. The “plasma protein binding (in words)” value ([1]; compared with JTE013 and compound 1) was “lower plasma protein binding”, the “mean fraction bound (%)” value [1] was 77.0% and the IC50 (S1P5 receptor) was 3.2 nM.
`CCN(C)c1cc(NC(=O)NN(CCO)c2cc(C(C)C)c3c(C)nn(C)c3n2)cc(Cl)n1` [Compound 39] gave an IC50 (S1P2 receptor) of 19 nM and an IC50 (S1P5 receptor) of 40 nM.
`C=CCn1nc(C)c2c(C(C)C)cc(NNC(=O)Nc3cc(Cl)nc(Cl)c3)nc21` [Compound 27] gave an IC50 (S1P2 receptor) of 75 nM and an IC50 (S1P5 receptor) of 165 nM.
In the case of `C=CCn1nc(C)c2c(C(C)C)cc(N(CC(=O)O)NC(=O)Nc3cc(Cl)nc(Cl)c3)nc21` [Compound 3], the IC50 (S1P2 receptor) is reported as 3000 nM and the IC50 (S1P5 receptor) is reported as 5700 nM.
In the case of `Cc1nn(C)c2nc(N(CCO)NC(=O)Nc3ccc(Cl)nc3Cl)cc(C(C)C)c12` [Compound 41], the IC50 (S1P2 receptor) is reported as > 10000 nM and the IC50 (S1P5 receptor) is reported as > 10000 nM.
With `Cc1nn(C)c2nc(N(CCO)NC(=O)Nc3cnc(Cl)c(Cl)c3)cc(C(C)C)c12` [Compound 40] the IC50 (S1P2 receptor) was 300 nM and the IC50 (S1P5 receptor) was > 10000 nM.
Work on `C=CCn1nc(C)c2c(C(C)C)cc(ONC(=O)Nc3cc(Cl)nc(Cl)c3)nc21` [Compound 6] yielded an IC50 (S1P2 receptor) of 52 nM and an IC50 (S1P5 receptor) of 8.7 nM.
For `CCOc1cc(NC(=O)NN(CCO)c2cc(C(C)C)c3c(C)nn(C)c3n2)cc(Cl)n1` [Compound 35], the IC50 (S1P2 receptor) was 29 nM and the IC50 (S1P5 receptor) was 13 nM.
In the case of `COCCOc1cc(NC(=O)NN(CCO)c2cc(C(C)C)c3c(C)nn(C)c3n2)cc(Cl)n1` [Compound 37], the IC50 (S1P2 receptor) is reported as 160 nM and the IC50 (S1P5 receptor) is reported as > 10000 nM.
In the case of `Cc1nn(C)c2nc(N(CCO)NC(=O)Nc3cc(Cl)cc(C(F)(F)F)c3)cc(C(C)C)c12` [Compound 44], the IC50 (S1P2 receptor) is reported as > 120 nM and the IC50 (S1P5 receptor) is reported as 74 nM.
Work on `Cc1nn(C)c2nc(N(CCO)NC(=O)Nc3cc(Cl)c(Cl)s3)cc(C(C)C)c12` [Compound 42] yielded an IC50 (S1P2 receptor) of 64 nM and an IC50 (S1P5 receptor) of 290 nM.
Compound `Cc1nn(C)c2nc(N(CCO)NC(=O)Nc3cc(Cl)nc(Cl)c3)cc(C(C)C)c12` [Compound 9, N-(2,6-Dichloropyridin-4-yl)-2-(2-hydroxyethyl)-2-(4-isopropyl-1,3-dimethyl-1H-pyrazolo[3,4-b]pyridin-6-yl)hydrazine-1-carboxamide] has an IC50 (S1P2 receptor) of 7 nM and an IC50 (S1P5 receptor) of 20.9 nM.
Work on `CCCOc1cc(NC(=O)NN(CCO)c2cc(C(C)C)c3c(C)nn(C)c3n2)cc(Cl)n1` [Compound 36] yielded an IC50 (S1P2 receptor) of 10 nM and an IC50 (S1P5 receptor) of 33 nM.
In the case of `C=CCn1nc(C)c2c(C(F)(F)F)cc(NNC(=O)Nc3cc(Cl)nc(Cl)c3)nc21` [Compound 5], the IC50 (S1P2 receptor) is reported as > 10000 nM and the IC50 (S1P5 receptor) is reported as > 10000 nM.
